Measured values as given in patent US20200069675A1, “PHARMACEUTICAL PREPARATIONS OF SEBACOYL DINALBUPHINE AND ACETAMINOPHEN AND METHODS FOR TREATING PAIN” (International Education Foundation, priority 2018, published 2020).

Assays:
SD rats = test: Paw pressure test (Randall and Selitto), analgesic effect after oral administration; assay type: in vivo, Sprague-Dawley rats; conditions: alone or combined, mean ± SE; for AUC / AUG: analgesic effect AUC; for AUC: 0-300 min; for Maximum Peak (% of MPA): cut-off 750 g; for Duration of action (min) (20% of MPA): time over 20% MPA; for Onset of action (min) (20% of MPA): time up to 20% MPA
Method: Male Sprague-Dawley rats weights between 260 and 330 g were purchased from BioLASCO (Taipei, Taiwan). The rats were housed in a controlled condition (free access to food and water); 12-h light-dark cycle, temperature 22° C. and humidity 60%. All experiments were conducted in accordance with the IACUC's Protocol for the Care and Use of Animals and to treat the animals in an ethical and humane manner consistent with the law.
Analgesic effects studies were used to the paw pressure test by Randall and Selitto. Nociceptive threshold is expressed in grams and measured with an analgesimeter (IITC Inc. Life Science, CA), were applied to the left hind paw of rats. All animals were tested at 15, 30, and 45 min prior to medication, to obtain an average baseline. Results were expressed as a percentage of the maximum possible effect (% MPE), according to the formula % MPA=(Test-Baseline)/(Cutoff-Baseline)×100, cut-off value: 750 g. AUC (area under curve) is independent of each individual, at each time point detection value minus own baseline and integral, then calculated the average. Negative values (% MPA and AUC) are considered as zero. The maximum peak of % MPA and Tmax are independent of each individual, then calculated the average. With 20% MPA as a baseline of valid analgesic effect, analysis of onset time of action up to 20% MPA and duration time of action over 20% MPA. Pharmacodynamic studies were conducted to compare in rats the analgesic effects of oral administration of SDE 75 mg/kg alone. AAP product (100 mg/kg) alone and combinations of SDE 75 mg/kg plus AAP product (100 mg/kg) or NAL 60 mg/kg alone. AAP product (100 mg/kg) alone and combinations of NAL 60 mg/kg plus AAP product (100 mg/kg). The anti-nociceptive thresholds were measured at 30, 60, 90, 120, 150, 180, 210, 240, 270, and 300 min after drug administration.

[1] = system: hospitalized patients with postoperative pain; conditions: single oral doses, 128 hospitalized patients, evaluated each hour for 6 hours; Clin Pharmacol Ther 1986; 39:295-9; cited from earlier work
postoperative pain = conditions: oral vs intramuscular; cited from earlier work
[2] = conventional form, Br J Clin Pharmacol 1988, 25:264-8; cited from earlier work
[3] = Test 1, AAP product 100 mg/kg, SDE 75 mg/kg
[4] = Test 1, AAP product 100 mg/kg, SDE 75 mg/kg, time of maximum % MPA
[5] = Test 2, NAL 60 mg/kg, AAP product 100 mg/kg
[6] = Test 2, NAL 60 mg/kg, AAP product 100 mg/kg, MPA greater than 50%

| SMILES | AUC (SD rats; [3]) [g·h] | Maximum Peak (% of MPA) (SD rats; [3]) | Tmax (SD rats; [4]) [min] | Duration of action (min) (20% of MPA) (SD rats; [3]) | Onset of action (min) (20% of MPA) (SD rats; [3]) | AUG (SD rats; [5]) [g·h] | % MPA (Maximum Peak) (SD rats; [5]) [% MPA] | Tmax (SD rats; [5]) [min] | analgesic effect (measures of total and peak analgesia) [1] | Duration of action (SD rats; [6]) [min] | Onset of action (SD rats; [6]) [min] | potency of oral relative to intramuscular nalbuphine as postoperative analgesic (postoperative pain) | bioavailability through oral administration [2] |
| --- | --- | --- | --- | --- | --- | --- | --- | --- | --- | --- | --- | --- | --- |
| CC(=O)Nc1ccc(O)cc1 [AAP, acetaminophen] | 309.3 ± 68.5 | 32.4 ± 2.7 % of MPA | 50.0 ± 10.0 | 77.5 ± 13.5 | 46.7 ± 17.5 | 274.83 ± 51.94 | 38.26 ± 7.2 | 45 ± 8.66 | significantly superior to placebo |  |  |  |  |
| Oc1ccc2c3c1O[C@H]1[C@@H](O)CC[C@@]4(O)[C@@H](C2)N(CC2CCC2)CC[C@]314 [NAL, nalbuphine] |  |  |  |  |  | 298.9 ± 13.98 | 57.87 ± 2.77 | 30 ± 0 | significantly superior to placebo | 16.61 ± 3.92 | 24.36 ± 0.86 | one quarter to one fifth as potent as intramuscular nalbuphine | less than 5% |
| O=C(CCCCCCCCC(=O)Oc1ccc2c3c1O[C@H]1[C@@H](O)CC[C@@]4(O)[C@@H](C2)N(CC2CCC2)CC[C@]314)Oc1ccc2c3c1O[C@H]1[C@@H](O)CC[C@@]4(O)[C@@H](C2)N(CC2CCC2)CC[C@]314 [SDE, sebacoyl dinalbuphine ester] | 359.4 ± 34.8 | 46.6 ± 3.8 % of MPA | 37.5 ± 3.9 | 99.8 ± 10.0 | 14.7 ± 1.3 |  |  |  |  |  |  |  |  |
